The structures appear in SMILES notation.

One test deals with HFF. Description: Cytotoxicity against HFF assessed as reduction in cell viability after 48 hrs by sulforhodamine B assay. Type of test: cell-based. The following applies: Homo sapiens.
The subject of a further test is SK-MEL-28. The test is described as follows: Cytotoxicity against human SK-MEL-28 cells assessed as reduction in cell viability after 48 hrs by sulforhodamine B assay. Type of test: functional, cell-based. The following applies: SK-MEL-28, 48 h. (In general: The SRB assay estimates cell density from bound dye.)

What is called IC50 is the point on the concentration scale where inhibition reaches its midpoint. With `CC(=O)N[C@H]1[C@H](O[C@H]2CC[C@]3(C)[C@H]4CC=C5[C@@H]6CC(C)(C)CC[C@]6(C(=O)O[C@@H]6OC[C@H](O)[C@H](O)[C@H]6O[C@@H]6O[C@@H](C)[C@H](O[C@@H]7O[C@@H](COC(C)=O)[C@H](O)[C@H]7O)[C@@H](O[C@@H]7OC[C@@H](O)[C@H](O)[C@H]7O)[C@H]6O)[C@H](O)C[C@@]5(C)[C@]4(C)CC[C@H]3C2(C)C)O[C@H](CO)[C@@H](O[C@@H]2O[C@H](CO)[C@@H](O)[C@H](O)[C@H]2O)[C@@H]1O`, the values for the IC50 in the test with HFF and with SK-MEL-28 were 13.4 µM and 25 µM, respectively.

For the compound `CC(=O)N[C@H]1[C@H](O[C@H]2CC[C@]3(C)[C@H]4CC=C5[C@@H]6CC(C)(C)CC[C@]6(C(=O)O[C@@H]6OC[C@H](O)[C@H](O)[C@H]6O[C@@H]6O[C@@H](C)[C@H](O[C@@H]7O[C@@H](CO)[C@H](O)[C@H]7O)[C@@H](O[C@@H]7OC[C@@H](O)[C@H](O)[C@H]7O)[C@H]6O)[C@H](O)C[C@@]5(C)[C@]4(C)CC[C@H]3C2(C)C)O[C@H](CO)[C@@H](O[C@@H]2O[C@H](CO)[C@@H](O)[C@H](O)[C@H]2O)[C@@H]1O`, the values for the IC50 in the test on HFF and in the test with SK-MEL-28 were 14.2 µM and 15 µM, respectively.

The record behind these values is ChEMBL document CHEMBL4130467, “Isolation and Structural Characterization of Echinocystic Acid Triterpenoid Saponins from the Australian Medicinal and Food Plant Acacia ligulata” (J Nat Prod, 2017).
